Experimental data reported in patent publication US20260070924A1, “INDAZOLE MACROCYCLES AND THEIR USE” (BLOSSOMHILL THERAPEUTICS, INC., priority 2022, published 2026).
pIC50: −log10 of the molar value.

Legend:
phospho-FLT3 (Y589/Y591) [1] = biological target: phospho-FLT3 (Y589/Y591) (Homo sapiens, UniProt P36888, INS600FREYEYD); test: Inhibition of kinase phosphorylation by Western Blot in MOLM-13; type: cell-based; settings: MOLM-13 cells, 4 hour-incubation; read-out: pFLT3 MOLM-13 IC50
PIM1 = PIM1 (Homo sapiens (Human), UniProt P11309); test: HotSpot radiometric kinase assay (Reaction Biology); type: biochemical
Sequence of PIM1 (P11309 whole entry): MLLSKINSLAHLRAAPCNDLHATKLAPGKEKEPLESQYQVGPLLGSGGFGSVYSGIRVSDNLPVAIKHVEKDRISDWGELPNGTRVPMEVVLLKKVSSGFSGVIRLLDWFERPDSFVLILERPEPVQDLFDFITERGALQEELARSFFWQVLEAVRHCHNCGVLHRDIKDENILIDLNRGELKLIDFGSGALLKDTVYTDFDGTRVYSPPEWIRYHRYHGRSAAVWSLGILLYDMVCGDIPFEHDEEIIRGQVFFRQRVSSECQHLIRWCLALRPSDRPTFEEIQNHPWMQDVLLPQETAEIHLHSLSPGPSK
Description: (§1) Briefly, specific kinase/substrate pairs along with required cofactors were prepared in reaction buffer; 20 mM Hepes pH 7.5, 10 mM MgCl2, 1 mM EGTA, 0.02% Brij35, 0.02 mg/ml BSA, 0.1 mM Na3VO4, 2 mM DTT, 1% DMSO. Compounds were delivered into the reaction, followed ˜20 minutes later by addition of a mixture of ATP (Sigma, St. Louis MO) and ^33P ATP (Perkin Elmer, Waltham MA) to a final concentration of […]. Reactions were carried out at room temperature for 120 min, followed by spotting of the reactions onto P81 ion exchange filter paper (Whatman Inc., Piscataway, NJ). Unbound phosphate was removed by extensive washing of filters in 0.75% phosphoric acid. […] IC50 values and curve fits were obtained using Prism (GraphPad Software).

PIM3 = PIM3 (Homo sapiens (Human), UniProt Q86V86); test: as above; type: biochemical
Description: as §1

PIM2 = PIM2 (Homo sapiens (Human), UniProt Q9P1W9); test: as above; type: biochemical
Sequence of PIM2 (Q9P1W9 whole entry): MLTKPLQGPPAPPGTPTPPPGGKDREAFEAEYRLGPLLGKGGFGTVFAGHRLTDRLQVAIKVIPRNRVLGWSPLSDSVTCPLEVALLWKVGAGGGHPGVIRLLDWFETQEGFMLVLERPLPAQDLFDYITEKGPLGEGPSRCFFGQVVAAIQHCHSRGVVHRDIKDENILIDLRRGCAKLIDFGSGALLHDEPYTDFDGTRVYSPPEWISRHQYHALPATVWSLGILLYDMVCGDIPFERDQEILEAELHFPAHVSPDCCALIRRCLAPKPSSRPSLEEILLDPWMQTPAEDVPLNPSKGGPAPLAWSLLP
Description: as §1

FLT3 = FLT3 (Homo sapiens (Human), UniProt P36888); test: as above; type: biochemical
Sequence of FLT3 (P36888 27-993): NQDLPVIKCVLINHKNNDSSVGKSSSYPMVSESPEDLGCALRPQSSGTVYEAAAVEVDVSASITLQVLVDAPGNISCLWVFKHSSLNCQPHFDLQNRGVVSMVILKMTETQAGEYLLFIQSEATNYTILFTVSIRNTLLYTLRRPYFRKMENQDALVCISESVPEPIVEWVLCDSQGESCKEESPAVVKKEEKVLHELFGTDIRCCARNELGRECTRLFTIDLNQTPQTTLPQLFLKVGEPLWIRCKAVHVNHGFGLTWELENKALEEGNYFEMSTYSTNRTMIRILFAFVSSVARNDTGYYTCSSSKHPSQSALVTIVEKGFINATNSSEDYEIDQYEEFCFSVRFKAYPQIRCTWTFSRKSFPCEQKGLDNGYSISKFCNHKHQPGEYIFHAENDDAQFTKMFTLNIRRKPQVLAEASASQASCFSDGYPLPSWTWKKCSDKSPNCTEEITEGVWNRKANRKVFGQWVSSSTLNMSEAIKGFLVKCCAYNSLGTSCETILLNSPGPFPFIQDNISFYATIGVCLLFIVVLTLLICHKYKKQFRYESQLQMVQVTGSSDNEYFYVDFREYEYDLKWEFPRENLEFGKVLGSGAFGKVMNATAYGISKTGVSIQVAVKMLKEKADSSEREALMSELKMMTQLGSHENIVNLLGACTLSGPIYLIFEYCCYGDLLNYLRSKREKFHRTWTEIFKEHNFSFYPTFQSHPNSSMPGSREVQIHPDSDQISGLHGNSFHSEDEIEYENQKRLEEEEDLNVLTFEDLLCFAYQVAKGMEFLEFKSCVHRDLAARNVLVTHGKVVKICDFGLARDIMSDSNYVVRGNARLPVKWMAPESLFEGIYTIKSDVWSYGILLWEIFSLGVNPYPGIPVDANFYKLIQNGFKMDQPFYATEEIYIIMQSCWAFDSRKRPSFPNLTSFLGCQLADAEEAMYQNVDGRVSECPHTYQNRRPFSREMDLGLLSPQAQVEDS

phospho-FLT3 (Y589/Y591) [2] = biological target: phospho-FLT3 (Y589/Y591) (Homo sapiens (Human), UniProt P36888, INS600HVDFREYEYD); test: Inhibition of kinase phosphorylation by Western Blot in MV-4-11; type: cell-based; settings: MV-4-11 cells, 4 hour-incubation; read-out: pFLT3 MV-4-11 IC50
Sequence of phospho-FLT3 (Y589/Y591) (Homo sapiens (Human), UniProt P36888, INS600HVDFREYEYD) (P36888 whole entry, looked up, stated change not applied): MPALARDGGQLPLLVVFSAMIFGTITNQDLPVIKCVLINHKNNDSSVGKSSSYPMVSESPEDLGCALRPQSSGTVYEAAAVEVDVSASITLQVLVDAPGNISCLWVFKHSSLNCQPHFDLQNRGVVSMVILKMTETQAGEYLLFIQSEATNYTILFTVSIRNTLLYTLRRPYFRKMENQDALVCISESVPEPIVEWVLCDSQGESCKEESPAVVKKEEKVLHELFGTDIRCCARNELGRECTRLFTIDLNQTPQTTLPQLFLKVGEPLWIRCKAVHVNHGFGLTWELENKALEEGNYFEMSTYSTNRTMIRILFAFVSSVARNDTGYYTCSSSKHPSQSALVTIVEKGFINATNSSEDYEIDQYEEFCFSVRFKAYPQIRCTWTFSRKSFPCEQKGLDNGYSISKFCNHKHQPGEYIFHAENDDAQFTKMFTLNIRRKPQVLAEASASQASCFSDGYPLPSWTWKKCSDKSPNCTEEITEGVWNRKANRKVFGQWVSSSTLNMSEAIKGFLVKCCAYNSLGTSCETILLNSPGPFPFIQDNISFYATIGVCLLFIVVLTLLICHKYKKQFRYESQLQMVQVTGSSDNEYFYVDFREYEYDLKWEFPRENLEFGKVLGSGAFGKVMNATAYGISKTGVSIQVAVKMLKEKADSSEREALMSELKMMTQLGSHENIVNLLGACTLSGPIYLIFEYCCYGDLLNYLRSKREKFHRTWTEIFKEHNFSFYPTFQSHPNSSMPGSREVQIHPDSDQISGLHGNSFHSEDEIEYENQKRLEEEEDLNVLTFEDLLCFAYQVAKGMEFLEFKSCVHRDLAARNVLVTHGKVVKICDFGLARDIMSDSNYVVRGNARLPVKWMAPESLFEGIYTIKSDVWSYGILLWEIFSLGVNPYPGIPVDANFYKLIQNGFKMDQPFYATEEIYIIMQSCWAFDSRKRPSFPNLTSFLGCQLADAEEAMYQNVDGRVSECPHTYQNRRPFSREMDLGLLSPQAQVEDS

AGS = test: Cell proliferation panel (CellTiter-Glo 2.0, 5 days); type: cell-based; settings: Gastric adenocarcinoma
Description: (§2) Cell proliferation assay was carried out in a panel of 108 cell lines. 1000 (attached cells) or 3000 (suspension cells) cells/100 μl per well were seeded in 96 well black plate with a clear bottom (Corning #3904). Compounds were added using Tecan D300e Digital Dispenser in 1:3 titration for 9 doses. Plates were incubated for 5 days at 37° C. and 5% CO2. Cell proliferation was measured using CellTiter-Glo 2.0 luciferase-based ATP detection assay (Promega, Madison, WI) at 50 μl per well following the manufacturer's protocol. Plates were then read on a TECAN Sparks multimode microplate reader. Data was analyzed using GraphPad Prism 9 (GraphPad Software, San Diego, CA) to obtain IC50 values. IC50 values were determined using Prism software (GraphPad Software, San Diego, CA).

MCF7 = test: as above; type: cell-based; settings: Breast adenocarcinoma
Description: as §2

NB-1 = test: as above; type: cell-based; settings: Neuroblastoma
Description: as §2

MOLM14 = test: as above; type: cell-based; settings: Acute myeloid leukemia
Description: as §2

GP2D = test: as above; type: cell-based; settings: Colon adenocarcinoma
Description: as §2

IMR-32 = test: as above; type: cell-based; settings: Neuroblastoma
Description: as §2

Toledo = test: as above; type: cell-based; settings: Diffuse Large B Cell Lymphoma
Description: as §2

HCT116 = test: as above; type: cell-based; settings: Colorectal adenocarcinoma
Description: as §2

H2228 = test: as above; type: cell-based; settings: Lung adenocarcinoma, NSCLC
Description: as §2

H1975 = test: as above; type: cell-based; settings: Lung adenocarcinoma NSCLC
Description: as §2

H446 = test: as above; type: cell-based; settings: Small cell lung carcinoma
Description: as §2

PANC0504 = test: as above; type: cell-based; settings: Pancreatic carcinoma
Description: as §2

SW1990 = test: as above; type: cell-based; settings: Pancreatic adenocarcinoma
Description: as §2

H441 = test: as above; type: cell-based; settings: Lung adenocarcinoma NSCLC
Description: as §2

EOL-1 = test: as above; type: cell-based; settings: Chronic eosinophilic leukemia
Description: as §2

H69 = test: as above; type: cell-based; settings: Lung small cell carcinoma
Description: as §2

MV-4-11 = test: as above; type: cell-based; settings: Biphenotypic B-Myelomonocytic Leukemia
Description: as §2

SK-N-AS = test: as above; type: cell-based; settings: Neuroblastoma
Description: as §2

H211 = test: as above; type: cell-based; settings: Small cell lung carcinoma
Description: as §2

MFM-223 = test: as above; type: cell-based; settings: Breast carcinoma
Description: as §2

HCC38 = test: as above; type: cell-based; settings: Mammary gland ductal carcinoma
Description: as §2

HCC827 = test: as above; type: cell-based; settings: Lung adenocarcinoma NSCLC
Description: as §2

LS513 = test: as above; type: cell-based; settings: Colorectal carcinoma
Description: as §2

PA-1 = test: as above; type: cell-based; settings: Ovary Teratocarcinoma
Description: as §2

U87 MG = test: as above; type: cell-based; settings: Glioblastoma
Description: as §2

SKOV3 = test: as above; type: cell-based; settings: Ovarian adenocarcinoma
Description: as §2

Sequence of phospho-FLT3 (Y589/Y591) (Homo sapiens, UniProt P36888, INS600FREYEYD) (P36888 with tags, fused parts or gaps INS600FREYEYD limits assumed): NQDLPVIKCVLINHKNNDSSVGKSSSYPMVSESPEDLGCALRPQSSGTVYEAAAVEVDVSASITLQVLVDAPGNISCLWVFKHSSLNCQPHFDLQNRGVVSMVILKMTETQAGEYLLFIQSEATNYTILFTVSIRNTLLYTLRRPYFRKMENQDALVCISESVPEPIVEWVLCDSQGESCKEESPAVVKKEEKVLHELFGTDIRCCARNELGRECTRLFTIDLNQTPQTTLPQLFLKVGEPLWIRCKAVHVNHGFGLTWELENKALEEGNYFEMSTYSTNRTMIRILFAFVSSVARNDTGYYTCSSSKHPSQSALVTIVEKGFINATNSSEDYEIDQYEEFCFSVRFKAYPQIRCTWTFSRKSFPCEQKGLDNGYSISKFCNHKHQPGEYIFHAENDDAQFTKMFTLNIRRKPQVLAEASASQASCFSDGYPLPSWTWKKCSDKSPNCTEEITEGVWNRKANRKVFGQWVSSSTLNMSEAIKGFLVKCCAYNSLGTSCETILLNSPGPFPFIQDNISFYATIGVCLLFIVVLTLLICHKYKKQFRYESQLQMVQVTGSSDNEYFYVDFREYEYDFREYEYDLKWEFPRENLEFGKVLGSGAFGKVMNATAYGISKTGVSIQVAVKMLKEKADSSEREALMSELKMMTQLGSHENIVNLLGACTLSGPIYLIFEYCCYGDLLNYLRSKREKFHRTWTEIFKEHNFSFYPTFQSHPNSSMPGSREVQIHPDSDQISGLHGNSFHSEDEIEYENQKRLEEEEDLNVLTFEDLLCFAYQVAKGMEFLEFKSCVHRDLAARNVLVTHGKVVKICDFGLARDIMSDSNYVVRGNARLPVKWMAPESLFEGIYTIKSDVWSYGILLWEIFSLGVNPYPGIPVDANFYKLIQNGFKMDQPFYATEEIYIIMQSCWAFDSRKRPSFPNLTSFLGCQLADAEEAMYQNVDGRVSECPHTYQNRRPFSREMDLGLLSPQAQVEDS

pIC50 (phospho-FLT3 (Y589/Y591) [1]): 9.49 | pIC50 (PIM1): 8.58 | pIC50 (PIM3): 9.94 | pIC50 (PIM2): 8.25 | pIC50 (FLT3): 10.06 | pIC50 (phospho-FLT3 (Y589/Y591) [2]): 9.80 | pIC50 (AGS): 7.06 | pIC50 (MCF7): 7.12 | pIC50 (MOLM14): 8.65 | pIC50 (HCT116): 7.22 | pIC50 (H2228): 6.93 | pIC50 (H1975): 7.06 | pIC50 (H446): 6.95 | pIC50 (PANC0504): 7.09 | pIC50 (SW1990): 6.98 | pIC50 (H441): 7.04 | pIC50 (MV-4-11): 9.17 | pIC50 (SK-N-AS): 7.11 | pIC50 (H211): 6.98 | pIC50 (HCC38): 6.79 | pIC50 (HCC827): 7.15 | pIC50 (U87 MG): 7.05 | pIC50 (SKOV3): 6.93
Compound: CCc1nn(C)c2c1/C=C/c1n[nH]c3ccc(cc13)-c1cnn(C)c1OCCN(C)C2=O [Ex. 6, (17E)-16-ethyl-8,12,14-trimethyl-2,11,12,14-tetrahydro-8H-3,5-ethenotripyrazolo[3,4-f:3′,4′-j:4″,3″-n][1,4]oxazacyclopentadecin-13(10H)-one]
pIC50 (NB-1): 7.35 | pIC50 (GP2D): 6.92 | pIC50 (IMR-32): 7.95 | pIC50 (Toledo): 7.46 | pIC50 (EOL-1): 7.72 | pIC50 (H69): 7.00 | pIC50 (MFM-223): 7.43 | pIC50 (LS513): 7.52 | pIC50 (PA-1): 7.32
